Laboratory results from PMC4467886 (Archives of biochemistry and biophysics, 2008).

target: T1, 5,10-methenyltetrahydrofolate synthetase (MTHFS) (Mus musculus, UniProt Q9D110); test: spectrophotometric MTHFS activity assay; assay type: biochemical
T1 sequence (Q9D110 2-203): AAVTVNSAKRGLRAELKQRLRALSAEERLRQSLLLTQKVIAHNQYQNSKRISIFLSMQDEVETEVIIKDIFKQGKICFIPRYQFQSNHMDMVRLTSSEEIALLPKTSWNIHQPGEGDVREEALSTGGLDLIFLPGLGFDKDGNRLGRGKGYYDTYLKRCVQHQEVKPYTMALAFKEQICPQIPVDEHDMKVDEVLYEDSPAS

Compound	Ki [µM]
Nc1nc2[nH]cc(CCc3ccc(C(=O)N[C@@H](CCC(=O)O)C(=O)O)cc3)c2c(=O)[nH]1 [Pemetrexed]	48 ± 11
Nc1nc2c(c(=O)[nH]1)C[C@@H](CCc1ccc(C(=O)N[C@@H](CCC(=O)O)C(=O)O)cc1)CN2 [Lometrexol]	9 ± 3
Nc1nc2c(c(=O)[nH]1)C[C@@H](CCc1ccc(C(=O)N[C@@H](CCC(=O)O)C(=O)O)s1)CN2 [LY309887]	6 ± 1
